These results are taken from patent publication US10189795B2, “Aryl amine substituted quinoxaline used as anticancer drugs” (priority 2014, dated 2019).

SMILES strings stand for the structures.

For one data set, the system named is NCI-1703. Put plainly: cell viability of NCI-1703 cells, 1 and 10 uM of each erlotinib derivative, and IC50. The following applies: Homo sapiens; for IC50: cell viability. It is filed as cell-based.
Another data set deals with NCI-H226. The data set can be described thus: cell viability of NCI-H226 cells, 1 and 10 uM. The following applies: Homo sapiens. It is filed as cell-based.
For a further data set, the system named is A549. The data set can be described thus: cell viability of A549 cells, 1 and 10 uM. The following applies: Homo sapiens. It is filed as cell-based.
In the next data set the test system is H358. The data set can be described thus: cell viability of H358 cells, 1 and 10 uM. The format is cell-based. The following applies: Homo sapiens, NCI-H358.
Another data set relates to H2170. Put plainly: cell viability of H2170 cells, 1 and 10 uM. It is filed as cell-based. The following applies: Homo sapiens, NCI-H2170. The procedure: [Worded in the source for another cell line; this cell line is reported under the same test.] (§1) Sorafenib (Nexavar), erlotinib (Tarceva) and Paclitaxel were kindly provided by Bayer Pharmaceuticals (Pittsburgh, Pa., USA) and Roche Pharmaceuticals (Basel, Switzerland) respectively. Okadaic acid (OA) was purchased from Cayman Chemical (Ann Arbor, Mich., USA) and z-VAD-fmk was obtained from Sigma (St. Louis, Mo., USA). For in vitro studies, drugs at various concentrations were dissolved in dimethyl sulfoxide (DMSO), and added to cells in Dulbecco's modified Eagle's medium (DMEM) or Roswell Park Memorial Institute (RPMI) containing 5% fetal bovine serum (FBS).
(§2) The Sk-Hep1, PLC/PRF/5 (PLC) and Hep3B cell lines were obtained from American Type Culture Collection (ATCC; Manassas, Va., USA). The Huh-7 HCC cell line was obtained from the Health Science Research Resources Bank (HSRRB; Osaka, Japan; JCRB0403). Cells were maintained in DMEM supplemented with 10% FBS in a 37° C. humidified incubator in an atmosphere of 5% CO^2 in air.

The test system of the next data set is H520. The data set can be described thus: cell viability of H520 cells, 1 and 10 uM. It is filed as cell-based. The following applies: Homo sapiens, NCI-H520. The procedure:
[Worded in the source for another cell line; this cell line is reported under the same test.] as §1, §2

The test system of a further data set is SW900. Put plainly: cell viability of SW900 cells, 1 and 10 uM. The format is cell-based. The following applies: Homo sapiens. As to the method:
[Worded in the source for another cell line; this cell line is reported under the same test.] as §1, §2

The nature of a further data set: BA (%), Table 5. The following applies: in vivo.
In another data set the target is T1, SET-PP2Ac binding (Homo sapiens, UniProt Q01105).
T1 construct: His; purchased Genway (SET-His); Abnova (PP2Ac-GST) GWB-ATG319; H00005515
T1 sequence (Q01105 1-277 isoform Q01105-2): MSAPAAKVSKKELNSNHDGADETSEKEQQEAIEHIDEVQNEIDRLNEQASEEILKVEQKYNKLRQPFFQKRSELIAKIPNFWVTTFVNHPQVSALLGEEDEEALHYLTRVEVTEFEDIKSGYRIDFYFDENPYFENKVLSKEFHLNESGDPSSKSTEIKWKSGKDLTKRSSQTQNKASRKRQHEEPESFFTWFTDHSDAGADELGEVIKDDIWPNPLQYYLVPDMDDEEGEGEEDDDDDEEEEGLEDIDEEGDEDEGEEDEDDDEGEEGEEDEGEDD
The data set can be described thus: disruption of SET-PP2Ac binding (surface plasmon resonance, co-IP). As to the method:
Binding affinities of full-length SET and truncated SET to PP2Ac and the effect of the erlotinib derivatives of the present invention on disrupting SET and PP2Ac were analyzed. PP2Ac-GST recombinant protein was bound in the CMS chip pre-coated with GST-capture antibodies. Sensorgrams were generated by injecting several concentrations of the erlotinib derivatives of the present invention mixed with fixed-concentration of SET recombinant protein, or the mixture of different concentration of truncated SET proteins in a fixed-dose EMQA. PP2Ac-GST recombinant protein used for this experiment was purchased from Abnova (H00005515) and SET-His recombinant protein was obtained from Genway (GWB-ATG319).
EMQA reactivates PP2A by disrupting the binding of SET-PP2Ac. To validate the role of SET, the present invention generated Hep3B cells with ectopic expression of myc-tagged SET by transient transfection. […] With a fixed amount of PP2Ac coated on the CM chip, the present invention tested the effects of a fixed-dose of EMQA on interfering different proportions of full-length and truncated forms of SET proteins in SPR system. […] To validate the findings of this ex vivo system, the present invention generated cells with ectopic overexpression of these two truncated forms of Flag-tagged SET proteins by transient transfections.

Another data set deals with PP2A. The data set can be described thus: PP2A phosphatase activity (malachite green-phosphate assay in cell lysate). It is filed as cell-based. As to the method: The protein phosphatase activity in each cell lysate was determined by measuring the generation of free phosphate from threonine phosphopeptide using the malachite green-phosphate complex assay as described by the manufacturer (Upstate Biotechnology, Lake Placid, N.Y., USA). In brief, HCC cell lysates were first prepared in a low-detergent lysis buffer. […] After incubation for 10 min at 30° C., the malachite dye was added and free phosphate was measured by optical density at 650 nm. In order to avoid variation resulting from differences in the amount of immunoprecipitation protein between samples, the phosphatase activities were normalized to the amounts of PP2A immunoprecipitated, which were detected and quantified by immunoblot analysis for each treatment group.

The next data set has as its system PLC5 xenograft tumor. Put plainly: PLC5 xenograft tumor growth in nude mice. It is filed as in vivo. The following applies: 10 mg/kg, oral gavage daily, 4 weeks, vs control arm. The procedure: Male NCr athymic nude mice (5-7 weeks of age) were obtained from the National Laboratory Animal Center (Taipei, Taiwan). All experimental procedures using these mice were performed in accordance with protocols approved by the Institutional Laboratory Animal Care and Use Committee of National Taiwan University. Each mouse was inoculated subcutaneously in the dorsal flank with 1×10^6 PLC5 or A549 cells suspended in serum-free medium containing 50% Matrigel (BD Biosciences, Bedford, Mass., USA). When tumors reached 100-150 mm^3, mice were treated with sorafenib, the erlotinib derivatives of the present invention, or vehicle (control) at 10 mg/kg/day daily by oral gavage for 4 weeks.
The present invention used a PLC5 xenograft mouse model to assess the effects of TD-52 in vivo. The present choose sorafenib as one of the comparative treatment arms. Tumor-bearing mice were administered sorafenib (10 mg/kg), TD-52 (10 mg/kg) or DMSO (vehicle, as control). […] The present invention further examined the xenografted tumors taken from mice receiving TD-52 and vehicle to confirm the molecular events in the tumor tissue. […] When PP2A activity was enhanced by TD-52, Akt was dephosphorylated, promoting HCC cell apoptosis.

The term viability denotes a read-out of living cells in per cent, often relative to untreated cells. In the case of `Cc1ccc(Nc2nc3ccccc3nc2Nc2ccc(C)c(O)c2)cc1O` [TD66, 5,5′-(quinoxaline-2,3-diylbis(azanediyl))bis(2-methylphenol)], the viability at 1 µM was 84.5 ± 2.3% in the data set on NCI-1703; 71.2 ± 1.2% in the data set with NCI-H226; 55.5 ± 5.1% in the data set with A549; 96.6 ± 0.9% with H358; 101.5 ± 0.48% in the data set with H2170; 104 ± 8.53% with H520. Besides, the viability at 1 µM in the data set with SW900 amounted to 113 ± 4.64%. Also, the viability at 10 µM with NCI-1703 was found to be 10.1 ± 0.2%; in the data set on NCI-H226, 4.7 ± 0.1%; in the data set with A549, 11.1 ± 0.6%; in the data set with H358, 14.9 ± 3%; in the data set on H2170, 3.7 ± 1.37%; in the data set on H520, 51.7 ± 20.5%. For the same molecule, in the data set with SW900, the viability at 10 µM was found to be 77.4 ± 20.5%. Moreover, the “BA (%)” value in the data set “BA (%), Table 5” worked out at 22%.

The term IC50 denotes the midpoint of a concentration-inhibition curve. For `C#Cc1cccc(Nc2nc3ccc([N+](=O)[O-])cc3nc2Nc2cccc(C#C)c2)c1` [TD604, N^2,N^3-bis(3-ethynylphenyl)-6-nitroquinoxaline-2,3-diamine], the viability at 1 µM in the data set with NCI-1703 turned out to be 15.2 ± 0.5%; in the data set with NCI-H226, 40.3 ± 1.7%; in the data set with A549, 117 ± 7.2%; with H358, 115 ± 9%; with H2170, 74.7 ± 6.38%; in the data set with H520, 30.5 ± 13.9%. In addition, the viability at 1 µM in the data set on SW900 was found to be 86.1 ± 22.8%. The viability at 10 µM in the data set on NCI-1703 worked out at 12.5 ± 0.3%; in the data set on NCI-H226 it was 5.3 ± 0.3%; in the data set with A549 it was 132 ± 5.1%; with H358, 116 ± 8.5%; in the data set with H2170, 2.06 ± 0.66%; in the data set with H520 it was 0.99 ± 0.02%. Further, the viability at 10 µM in the data set with SW900 was 0%. In the data set on NCI-1703, this molecule returned an IC50 of 600 nM. Also, in the data set “BA (%), Table 5”, the “BA (%)” value was determined as 57%. The “minimal concentration to disrupt SET-PP2Ac binding” value on SET-PP2Ac binding lay in the range of 50 to 100 nM. Further, in the data set with PP2A, the “minimal concentration for PP2A activation” value is recorded as less than 50 nM.

Consider `C#Cc1cccc(Nc2nc3cc([N+](=O)[O-])ccc3nc2Nc2ccc(OC)cc2)c1` [TD605, N^3-(3-ethynylphenyl)-N^2-(4-methoxyphenyl)-6-nitroquinoxaline-2,3-diamine], for which the viability at 1 µM in the data set with NCI-1703 stood at 20.8 ± 0.4%; in the data set on NCI-H226, 53.1 ± 1.9%; in the data set on A549 it was 83.7 ± 7%; in the data set on H358, 101 ± 13.6%; in the data set on H2170, 108 ± 3.88%; in the data set on H520, 89.1 ± 6.09%. For the same molecule, the viability at 1 µM in the data set on SW900 worked out at 87.1 ± 27.2%. Also, the viability at 10 µM with NCI-1703 came to 13.8 ± 0.2%; in the data set on NCI-H226, 5.5 ± 0.2%; with A549, 113 ± 18.3%; with H358, 113 ± 12%; in the data set with H2170, 5.53 ± 0.81%; with H520 it was 0.78 ± 0.39%. The viability at 10 µM in the data set on SW900 worked out at 2.21 ± 1.34%. This molecule also showed a half-inhibitory concentration (IC50) with NCI-1703 of 500 nM. The “minimal concentration to disrupt SET-PP2Ac binding” value on SET-PP2Ac binding fell in the range of 100 to 200 nM. The “minimal concentration for PP2A activation” value in the data set on PP2A was 100 to 200 nM.

With `Nc1ccc2nc(Nc3ccc(C(F)(F)F)cc3)c(Nc3ccc(C(F)(F)F)cc3)nc2c1` [TD607, N^2,N^3-bis(4-(trifluoromethyl)phenyl)quinoxaline-2,3,6-triamine], the viability at 1 µM was found to be 49.7 ± 2.7% in the data set with NCI-1703; 106 ± 2.6% in the data set on NCI-H226; 100 ± 5.9% with A549; 116 ± 15.5% in the data set on H358; 104 ± 14.2% in the data set with H2170; 63.4 ± 53.7% with H520. The viability at 1 µM in the data set on SW900 came to 85.9 ± 10.4%. The viability at 10 µM was 13.4 ± 1.6% in the data set on NCI-1703; 36.7 ± 2.2% with NCI-H226; 9.5 ± 0.6% in the data set with A549; 12.1 ± 0.3% in the data set on H358; 1.34 ± 0.93% in the data set on H2170; 0.61 ± 5% in the data set on SW900. Moreover, the IC50 in the data set on NCI-1703 turned out to be 1300 nM. Further, the “minimal concentration to disrupt SET-PP2Ac binding” value on SET-PP2Ac binding is given as more than 200 nM. In addition, the “minimal concentration for PP2A activation” value with PP2A is on record as more than 200 nM.

`COc1cccc(Nc2nc3ccc([N+](=O)[O-])cc3nc2Nc2cccc(OC)c2)c1` [TD608, N^2,N^3-bis(3-methoxyphenyl)-6-nitroquinoxaline-2,3-diamine]: the viability at 1 µM with NCI-1703 turned out to be 52.8 ± 4.5%; in the data set with NCI-H226 it was 104 ± 2.5%; with A549, 71.5 ± 35%; in the data set on H358, 110 ± 44%; in the data set with H2170, 113 ± 8.63%; in the data set with H520 it was 97 ± 19.8%. For the same molecule, the viability at 1 µM in the data set on SW900 was found to be 114 ± 2.6%. For the same molecule, the viability at 10 µM is 12.7 ± 0.9% in the data set on NCI-1703; 40.6 ± 2.4% with NCI-H226; 10.3 ± 3.5% in the data set on A549; 31.7 ± 33.3% in the data set with H358; 4.71 ± 0.24% in the data set on H2170; 1.77 ± 1.7% in the data set on H520. Also, the viability at 10 µM with SW900 amounted to 39.8 ± 51.2%. Further, the “minimal concentration to disrupt SET-PP2Ac binding” value at SET-PP2Ac binding is reported as more than 200 nM. Further, the “minimal concentration for PP2A activation” value in the data set with PP2A was more than 200 nM.

Take `C#Cc1cccc(Nc2nc3cc([N+](=O)[O-])ccc3nc2Nc2ccc(O)cc2)c1` [TD619, 4-(2-(3-ethynylphenylamino)-7-nitroquinoxalin-3-ylamino)phenol]: the viability at 1 µM with NCI-1703 is 119 ± 11.2%; in the data set with NCI-H226, 110 ± 18.2%; with A549, 105 ± 19.5%; in the data set with H358, 87.5 ± 3.6%. Besides, the viability at 10 µM in the data set on NCI-1703 came to 33.6 ± 5.4%; in the data set with NCI-H226, 19.5 ± 0.7%; in the data set on A549 it was 20.9 ± 1.7%; in the data set with H358, 22.1 ± 0.6%. For the same molecule, the “BA (%)” value in the data set “BA (%), Table 5” turned out to be 62%.

For the molecule `CNC(=O)c1cc(Oc2ccc(NC(=O)Nc3ccc(Cl)c(C(F)(F)F)c3)cc2)ccn1` [sorafenib, reference compound], in the data set with PLC5 xenograft tumor, the tumor size result is recorded as “smaller than those of the control arm”.
